Experimental data: PubChem BioAssay AID1745844 (Carcinogenic Potency Database (CPDB), 2022)
Calls of active or inactive are those of the source. No rule for the calls is given here.

Tested on: rodent lifetime carcinogenesis bioassay, tumor incidence TD50
Assay: chronic cancer bioassays in animals – CPDB, compiled studies (AID 1745844)

**Q.** What does the source list for `C/C=C1/C[C@@H](C)[C@](O)(CO)C(=O)OCC2=CC[N+]3([O-])CC[C@@H](OC1=O)[C@@H]23` (stereo partly specified)?
**A.** TD50 (rat, strain Wistar, females, in drinking water, site: liver, lesion: hepatoma, dosed 103 weeks, study length 104 weeks): 1.27 mg/kg/day; TD50 (rat, strain Wistar, males, in drinking water, site: liver, lesion: hepatoma, dosed 103 weeks, study length 104 weeks): 0.499 mg/kg/day

**Q.** With `N=c1ccn2c(n1)O[C@H]1[C@H](O)[C@@H](CO)O[C@H]12` as the molecule, how does the carcinogen call (rat, strain Wistar, females, i.p., site: any site (literature study), lesion: one or several types, types not named, dosed 52 weeks, study length 52 weeks) read?
**A.** The carcinogen call was “negative (inactive)”.

**Q.** What about the carcinogen call (rat, strain Wistar, females, i.p., site: any site (literature study), lesion: several types, types named in the paper, dosed 104 weeks, study length 104 weeks) of the same molecule?
**A.** Its carcinogen call is “negative (inactive)”.

**Q.** And the carcinogen call (rat, strain Wistar, males, i.p., site: any site (literature study), lesion: one or several types, types not named, dosed 52 weeks, study length 52 weeks)?
**A.** Its carcinogen call is “negative (inactive)”.

**Q.** What about the carcinogen call (rat, strain Wistar, males, i.p., site: any site (literature study), lesion: several types, types named in the paper, dosed 104 weeks, study length 104 weeks) of the same molecule?
**A.** The carcinogen call was “negative (inactive)”.

**Q.** For `CC(=O)Nc1cccc2c1Cc1ccccc1-2`, which TD50 (rat, strain Buffalo, females, in feed, site: adrenal gland, lesion: carcinoma, dosed 47 weeks, study length 88 weeks) is on record?
**A.** Its TD50 is 54.8 mg/kg/day.

**Q.** What about the TD50 (rat, strain Buffalo, females, in feed, site: all sites, lesion: leukemia, indeterminate type, dosed 47 weeks, study length 88 weeks) of the same molecule?
**A.** The TD50 was 54.8 mg/kg/day.

**Q.** And the TD50 (rat, strain Buffalo, females, in feed, site: ovary, lesion: granulosa-cell carcinoma, dosed 47 weeks, study length 88 weeks)?
**A.** The TD50 was 54.8 mg/kg/day.

**Q.** And the TD50 (rat, strain Buffalo, females, in feed, site: pituitary gland, lesion: adenoma, dosed 47 weeks, study length 88 weeks)?
**A.** Its TD50 is 43.5 mg/kg/day.

**Q.** What about the TD50 (rat, strain Buffalo, females, in feed, site: uterus, lesion: carcinosarcoma, dosed 47 weeks, study length 88 weeks) of the same molecule?
**A.** The TD50 was 54.8 mg/kg/day.

**Q.** How did the TD50 (hamster, strain Syrian Golden, both sexes, by gavage, site: any site (literature study), lesion: several types, types named in the paper, dosed 53 weeks, study length 59 weeks) turn out when `C=CCN(CC=C)N=O` was run?
**A.** The TD50 was 1.54 mg/kg/day.

**Q.** And the TD50 (hamster, strain Syrian Golden, both sexes, by gavage, site: larynx, lesion: papillary polyp, dosed 53 weeks, study length 59 weeks)?
**A.** Its TD50 is 3.69 mg/kg/day.

**Q.** And the TD50 (hamster, strain Syrian Golden, both sexes, by gavage, site: liver, lesion: cholangioma, dosed 53 weeks, study length 59 weeks)?
**A.** The TD50 was 743 mg/kg/day.

**Q.** What about the TD50 (hamster, strain Syrian Golden, both sexes, by gavage, site: nasal cavity, posterior region, lesion: adenocarcinoma, dosed 53 weeks, study length 59 weeks) of the same molecule?
**A.** The TD50 was 2.86 mg/kg/day.

**Q.** And the TD50 (hamster, strain Syrian Golden, both sexes, by gavage, site: pharynx, lesion: papilloma, dosed 53 weeks, study length 59 weeks)?
**A.** The TD50 was 25.3 mg/kg/day.

**Q.** What about the TD50 (hamster, strain Syrian Golden, both sexes, by gavage, site: trachea, lesion: papillary polyp, dosed 53 weeks, study length 59 weeks) of the same molecule?
**A.** Its TD50 is 2.84 mg/kg/day.

**Q.** And the TD50 (rat, strain BD IX, females, in drinking water, site: nasal and paranasal cavity, lesion: adenocarcinoma, dosed 104 weeks, study length 104 weeks)?
**A.** The TD50 was 33.6 mg/kg/day.

**Q.** And the TD50 (rat, strain BD IX, females, in drinking water, site: nasal and paranasal cavity, lesion: several types, types named in the paper, dosed 104 weeks, study length 104 weeks)?
**A.** Its TD50 is 32.1 mg/kg/day.

**Q.** What about the TD50 (rat, strain BD IX, males, in drinking water, site: nasal and paranasal cavity, lesion: adenocarcinoma, dosed 104 weeks, study length 104 weeks) of the same molecule?
**A.** Its TD50 is 46.9 mg/kg/day.

**Q.** What about the TD50 (rat, strain BD IX, males, in drinking water, site: nasal and paranasal cavity, lesion: several types, types named in the paper, dosed 104 weeks, study length 104 weeks) of the same molecule?
**A.** The TD50 was 36 mg/kg/day.

**Q.** Which results are given for `Brc1cc(-c2ccc(Br)c(Br)c2Br)cc(Br)c1Br`?
**A.** TD50 (rat, strain Sprague-Dawley Spartan, females, in feed, site: any site (literature study), lesion: several types, types named in the paper, dosed 57 weeks, study length 57 weeks): 5.91 mg/kg/day (inactive); carcinogen call (rat, strain Sprague-Dawley Spartan, females, in feed, site: liver, lesion: one or several types, types not named, dosed 57 weeks, study length 57 weeks): negative (inactive)

**Q.** What does the source list for `FCCl`?
**A.** TD50 (rat, strain Alpk:APfSD, females, by gavage, site: stomach, lesion: carcinoma, dosed 52 weeks, study length 108 weeks): 2710 mg/kg/day; TD50 (rat, strain Alpk:APfSD, females, by gavage, site: stomach, lesion: fibrosarcoma, dosed 52 weeks, study length 108 weeks): 119 mg/kg/day; TD50 (rat, strain Alpk:APfSD, females, by gavage, site: stomach, lesion: sarcoma, dosed 52 weeks, study length 108 weeks): 2710 mg/kg/day; TD50 (rat, strain Alpk:APfSD, females, by gavage, site: stomach, lesion: several types, types named in the paper, dosed 52 weeks, study length 108 weeks): 26.5 mg/kg/day; TD50 (rat, strain Alpk:APfSD, females, by gavage, site: stomach, lesion: squamous-cell carcinoma, dosed 52 weeks, study length 108 weeks): 69.4 mg/kg/day; TD50 (rat, strain Alpk:APfSD, males, by gavage, site: stomach, lesion: fibrosarcoma, dosed 52 weeks, study length 100 weeks): 88.1 mg/kg/day; TD50 (rat, strain Alpk:APfSD, males, by gavage, site: stomach, lesion: several types, types named in the paper, dosed 52 weeks, study length 100 weeks): 28.5 mg/kg/day; TD50 (rat, strain Alpk:APfSD, males, by gavage, site: stomach, lesion: squamous-cell carcinoma, dosed 52 weeks, study length 100 weeks): 46.9 mg/kg/day
